Assay results taken from patent US9096549B2, “Selective HDAC3 inhibitors” (Acetylon Pharmaceuticals, Inc., priority 2013, dated 2015).

Experiments:
Format in all cases: biochemical
Details in all cases: 24 hours pre-incubation with enzyme; tripeptide substrate 3 at Km
[1] = molecular target: HDAC1 (Homo sapiens (Human), UniProt Q13547); experiment: HDAC enzyme assay, HDAC1
Protocol: (§1) Compounds for testing were diluted in DMSO to 50 fold the final concentration and a ten point three fold dilution series was made. The compounds were diluted in assay buffer (50 mM HEPES, pH 7.4, 100 mM KCl, 0.001% Tween-20, 0.05% BSA, […] tris(2-carboxyethyl)phosphine) to 6 fold their final concentration. The HDAC enzymes (purchased from BPS Biosciences) were diluted to 1.5 fold their final concentration in assay buffer and pre-incubated with the compounds for 24 hours prior to addition of the substrate.
(§2) The substrate tripeptide substrate 3 (synthesized in house) for each enzyme was equal to the Km as determined by a substrate titration curve. The substrates were diluted in assay buffer at 6× their final concentration with 0.3 μM sequencing grade trypsin (Sigma). The substrate/trypsin mix was added to the enzyme/compound mix, the plate was shaken for 60 seconds and placed into a Spectramax M5 microtiter plate reader. The development of fluorescence was monitored for 30 min. and the linear rate of the reaction was calculated. The IC50 was determined using Graph Pad Prism by a four parameter curve fit. The IC50 values obtained for the compounds of this invention are found in Table 1.

[2] = molecular target: HDAC3 (Homo sapiens (Human), UniProt O15379); experiment: HDAC enzyme assay, HDAC3
Protocol: as §1, §2

[3] = molecular target: HDAC2 (Homo sapiens (Human), UniProt Q92769); experiment: HDAC enzyme assay, HDAC2
Protocol: as §1, §2

HDAC1, sequence (Q13547 whole entry): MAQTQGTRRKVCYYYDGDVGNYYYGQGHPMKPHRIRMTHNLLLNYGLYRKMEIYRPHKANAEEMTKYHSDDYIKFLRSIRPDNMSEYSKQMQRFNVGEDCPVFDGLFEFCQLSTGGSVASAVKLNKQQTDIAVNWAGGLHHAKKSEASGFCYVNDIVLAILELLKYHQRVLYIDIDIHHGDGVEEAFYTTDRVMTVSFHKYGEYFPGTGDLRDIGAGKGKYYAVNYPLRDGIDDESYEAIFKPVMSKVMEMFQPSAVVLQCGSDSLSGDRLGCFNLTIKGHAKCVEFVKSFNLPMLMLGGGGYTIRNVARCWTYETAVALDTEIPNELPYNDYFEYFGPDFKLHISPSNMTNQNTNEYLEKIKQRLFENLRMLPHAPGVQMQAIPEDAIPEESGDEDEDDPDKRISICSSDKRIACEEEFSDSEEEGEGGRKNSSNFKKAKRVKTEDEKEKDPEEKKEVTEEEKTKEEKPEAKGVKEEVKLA
HDAC2, sequence (Q92769 whole entry): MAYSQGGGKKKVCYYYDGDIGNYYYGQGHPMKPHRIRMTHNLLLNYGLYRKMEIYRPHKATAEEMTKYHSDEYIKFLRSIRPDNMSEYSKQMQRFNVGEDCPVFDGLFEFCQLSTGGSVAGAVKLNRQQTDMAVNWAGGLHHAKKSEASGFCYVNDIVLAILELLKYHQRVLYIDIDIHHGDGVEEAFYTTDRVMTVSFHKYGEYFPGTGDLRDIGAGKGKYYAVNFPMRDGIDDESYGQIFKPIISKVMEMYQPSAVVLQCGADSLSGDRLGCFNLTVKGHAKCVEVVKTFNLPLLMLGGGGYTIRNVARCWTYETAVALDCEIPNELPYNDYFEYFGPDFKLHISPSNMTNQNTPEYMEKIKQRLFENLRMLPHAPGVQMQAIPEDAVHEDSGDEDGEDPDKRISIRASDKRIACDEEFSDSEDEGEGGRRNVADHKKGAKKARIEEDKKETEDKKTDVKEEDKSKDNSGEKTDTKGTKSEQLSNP
HDAC3, sequence (O15379 whole entry): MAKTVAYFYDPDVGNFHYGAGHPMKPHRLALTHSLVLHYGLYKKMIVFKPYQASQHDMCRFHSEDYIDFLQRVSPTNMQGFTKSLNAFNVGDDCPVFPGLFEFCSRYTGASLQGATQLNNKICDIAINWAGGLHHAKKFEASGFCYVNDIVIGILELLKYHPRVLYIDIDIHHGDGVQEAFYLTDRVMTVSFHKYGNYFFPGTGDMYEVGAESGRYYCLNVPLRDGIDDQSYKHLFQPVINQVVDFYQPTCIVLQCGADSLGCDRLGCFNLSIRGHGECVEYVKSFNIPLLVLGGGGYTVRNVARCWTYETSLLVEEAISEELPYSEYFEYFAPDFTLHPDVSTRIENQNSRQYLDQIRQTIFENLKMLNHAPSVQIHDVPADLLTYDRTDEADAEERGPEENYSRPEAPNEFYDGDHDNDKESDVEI
HDAC3, sequence (Q9Y618 395-489 partner): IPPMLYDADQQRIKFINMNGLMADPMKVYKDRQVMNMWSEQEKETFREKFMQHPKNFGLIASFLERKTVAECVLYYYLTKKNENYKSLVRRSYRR

Row | IC50 [1] [nM] | IC50 [2] [nM] | IC50 [3] [nM] | IC50 (nM) HDAC1 [1] | IC50 (nM) HDAC2 [3] | SMILES
1 | > 2000 | 315 | 1340 | – | – | Nc1ccc(F)cc1NC(=O)c1ccc2nc(N3CCNCC3)ccc2c1 [Compound R]
2 | – | 282 | > 2000 | No inhibition | – | Nc1cc(F)ccc1NC(=O)c1ccc2[nH]cnc2c1 [Compound D]
3 | > 2000 | 675 | > 2000 | – | – | Nc1ccc(F)cc1NC(=O)c1cnc2cc(N3CCNCC3)ccc2n1 [Compound O]
4 | – | 269 | > 2000 | No inhibition | – | Nc1cc(F)ccc1NC(=O)c1ccc2c(c1)CC(=O)N2 [Compound C]
5 | > 2000 | 308 | > 2000 | – | – | Nc1ccc(F)cc1NC(=O)c1cnc2cc(N3CCNCC3)ccc2c1 [Compound Q, N-(2-amino-5-fluorophenyl)-7-(piperazin-1-yl)quinoline-3-carboxamide]
6 | > 2000 | 57 | 589 | – | – | Nc1cc(F)ccc1NC(=O)c1cnc2c(C3CC3)c(N3CCNCC3)ccc2c1 [Compound I]
7 | 1610 | 68 | 805 | – | – | CN1CCN(c2ccc3cc(C(=O)Nc4ccc(F)cc4N)cnc3c2C2CC2)CC1 [Compound E]
8 | 228 | 33 | 212 | – | – | Nc1ccccc1NC(=O)c1cc2ccc(N3CCNCC3)c(C3CC3)c2cn1 [Compound L]
9 | 462 | 30 | 228 | – | – | Nc1cc(F)ccc1NC(=O)c1cc2ccc(N3CCNCC3)c(C3CC3)c2cn1 [Compound M]
10 | – | 1300 | – | No inhibition | No inhibition | Nc1cc(F)ccc1NC(=O)c1cnc2cc(N3CCNCC3)ccc2n1 [Compound N]
11 | > 2000 | 193 | 1530 | – | – | Nc1cc(F)ccc1NC(=O)c1cnc2c(ccn2CCN2CCOCC2)c1 [Compound G]
12 | – | 470 | > 2000 | No inhibition | – | Nc1cc(F)ccc1NC(=O)c1cnc2cc(N3CCNCC3)ccc2c1 [Compound J]
13 | > 2000 | 320 | 1780 | – | – | Nc1cc(F)ccc1NC(=O)c1ccc2c(cnn2CCN2CCOCC2)c1 [Compound H]
14 | > 2000 | 235 | 1100 | – | – | Nc1ccc(F)cc1NC(=O)c1ccc2nc(N3CCNCC3)cnc2c1 [Compound P]
15 | 299 | 38 | 271 | – | – | Nc1ccccc1NC(=O)c1cc2ccc(N3CCNCC3)cc2cn1 [Compound K, N-(2-aminophenyl)-7-(piperazin-1-yl)isoquinoline-3-carboxamide]
16 | 468 | 59 | 455 | – | – | Nc1ccc(F)cc1NC(=O)c1cnc2c(C3CC3)c(N3CCNCC3)ccc2c1 [Compound A]
17 | 355 | 53 | 372 | – | – | Nc1ccccc1NC(=O)c1cnc2c(C3CC3)c(N3CCNCC3)ccc2c1 [Compound B]
